Values of other authors, collected in patent US20120141587A1, “COMPOSITIONS AND METHODS FOR TREATMENT OR PREVENTION OF POST-OPERATIVE ORGAN OR TISSUE INFLAMMATION” (priority 2009, published 2012).

What was measured:
inducible atrial flutter = conditions: oral; canine sterile pericarditis model; Goldstein et al. 2007
atrial fibrillation = conditions: instilled into a canine's pericardial sac; Ayers et al. 1996

SMILES | effect on inducible atrial flutter (inducible atrial flutter) | effect on atrial fibrillation (atrial fibrillation)
C[C@]12C=CC(=O)C=C1CC[C@@H]1[C@@H]2C(=O)C[C@@]2(C)[C@H]1CC[C@]2(O)C(=O)CO [prednisone] | prevent inducible atrial flutter | –
CCCCc1oc2ccccc2c1C(=O)c1cc(I)c(OCCN(CC)CC)c(I)c1 [amiodarone] | – | effectiveness in suppressing atrial fibrillation
